In patent publication US9302999B2, “Substituted triazoles as herbicides” (E. I. DU PONT DE NEMOURS AND COMPANY, priority 2012, dated 2016):
Read-outs that look alike come from different tables or passages of the source.

Columns and labels:
Format in all cases: in vivo
[1] = system: blackgrass (Alopecurus myosuroides); assay: Test C pre-/postemergence: blackgrass
Method in brief: (§1)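 Visual injury scored 0–100 (100 = complete control) against untreated controls after 13–15 greenhouse days. Surfactant-containing solvent formulations applied either to soil after sowing (loam/sand) or over 1- to 4-leaf plants, 2–18 cm tall.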

[2] = system: johnsongrass (Sorghum halepense); assay: Test C pre-/postemergence: johnsongrass
Text: (§2) Seeds of plant species selected from blackgrass (Alopecurus myosuroides), bromegrass, downy (downy bromegrass, Bromus tectorum), foxtail, green (green foxtail, Setaria viridis), ryegrass, Italian (Italian ryegrass, Lolium multiflorum), winter wheat (Triticum aestivum), wild oat (Avena fatua), galium (catchweed bedstraw, Galium aparine), bermudagrass (Cynodon dactylon), surinam grass (Brachiaria decumbens), cocklebur (common cocklebur, Xanthium strumarium), corn (Zea mays), large crabgrass (Digitaria sanguinalis), woolly cupgrass (Eriochloa villosa), foxtail, giant (giant foxtail, Setaria faberii), goosegrass (Eleusine indica), johnsongrass (Sorghum halepense), kochia (Kochia scoparia), lambsquarters (Chenopodium album), morningglory (Ipomoea coccinea), nightshade (eastern black nightshade, Solanum ptycanthum), nutsedge, yellow (yellow nutsedge, Cyperus esculentus), pigweed (Amaranthus retroflexus), ragweed (common ragweed, Ambrosia elation), soybean (Glycine max), common (oilseed) sunflower (Helianthus annuus), Russian thistle (Salsola kali) and velvetleaf (Abutilon theophrasti) were planted into a blend of loam soil and sand and treated preemergence with test chemicals formulated in a non-phytotoxic solvent mixture which included a surfactant.
(§3) At the same time, plants selected from these crop and weed species and also barley (winter barley, Hordeum vulgare), canarygrass (Phalaris minor), chickweed (common chickweed, Stellaria media) windgrass (Apera spica-venti) and deadnettle (henbit deadnettle, Lamium amplexicaule) were planted in pots containing Redi-Earth® planting medium (Scotts Company, 14111 Scottslawn Road, Marysville, Ohio 43041) comprising spaghnum peat moss, vermiculite, wetting agent and starter nutrients and treated with postemergence applications of test chemicals formulated in the same manner. Plants ranged in height from 2 to 18 cm (1- to 4-leaf stage) for postemergence treatments.
(§4) Treated plants and controls were maintained in a greenhouse for 13 to 15 days, after which time all species were compared to controls and visually evaluated. Plant response ratings, summarized in Table C, are based on a scale of 0 to 100 where 0 is no effect and 100 is complete control. A dash (-) response means no test result.

corn (Zea mays) = assay: Test A pre-/postemergence: corn
Method in brief: (§5)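 Compounds, formulated with surfactant in non-phytotoxic solvent, were applied as a directed soil spray preemergence and as postemergence sprays to 2–10 cm, one- to two-leaf seedlings grown in loam soil blended with sand; visual injury, 0–100, assessed ~10 days post-treatment against untreated controls.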

[3] = system: pigweed (Amaranthus retroflexus); assay: Test C pre-/postemergence: pigweed
Method in brief: as §1

wild oat (Avena fatua) = assay: Test C pre-/postemergence: wild oat
Text: as §2, §3, §4

[4] = system: winter wheat (Triticum aestivum); assay: Test C pre-/postemergence: winter wheat
Method in brief: as §1

[5] = system: chickweed (common chickweed, Stellaria media); assay: Test C postemergence: chickweed
Text: as §3, §4

[6] = system: barnyardgrass (Echinochloa crus-galli); assay: Test A pre-/postemergence: barnyardgrass; conditions: for pest or weed control at 125 g/ha / pest or weed control at 500 g/ha: Echinochloa crus-galli, 240 h
Method in brief: as §5

[7] = system: velvetleaf (Abutilon theophrasti); assay: Test A pre-/postemergence: velvetleaf; conditions: for pest or weed control at 125 g/ha / pest or weed control at 500 g/ha: Abutilon theophrasti, 240 h
Method in brief: as §5

[8] = Postemergence, 16 g ai/ha, scale 0 to 100, 0 no effect, 100 complete control
[9] = Postemergence, 31 g ai/ha, scale 0 to 100 (0 no effect, 100 complete control)
[10] = Postemergence, 62 g ai/ha, scale 0 to 100 (0 no effect, 100 complete control)
[11] = Postemergence, 125 g ai/ha, scale 0 to 100, 0 no effect, 100 complete control
[12] = Preemergence, 16 g ai/ha, scale 0 (no effect) to 100 (complete control)
[13] = Preemergence, 31 g ai/ha, scale of 0 to 100, 0 is no effect, 100 is complete control
[14] = Preemergence, 62 g ai/ha, scale 0 to 100, 0 no effect, 100 complete control
[15] = Preemergence, 125 g ai/ha, scale 0 to 100, 0 no effect, 100 complete control
[16] = Preemergence, 62 g ai/ha, scale of 0 to 100, 0 is no effect, 100 is complete control
[17] = 31 g ai/ha, scale 0 to 100 (0 no effect, 100 complete control)
[18] = 62 g ai/ha, scale 0 to 100 (0 no effect, 100 complete control)
[19] = 125 g ai/ha, scale 0 to 100, 0 no effect, 100 complete control
[20] = Postemergence, 250 g ai/ha, scale 0 to 100
[21] = Preemergence, 250 g ai/ha, scale 0 to 100, 0 no effect, 100 complete control
[22] = Postemergence, 125 g ai/ha, 0 to 100 scale, 0 is no effect, 100 is complete control
[23] = Postemergence, 500 g ai/ha, visual rating on 0 to 100 scale (0 no effect, 100 complete control), approximately ten days
[24] = Preemergence, 125 g ai/ha, 0 to 100 scale (0 no effect, 100 complete control)
[25] = Preemergence, 500 g ai/ha, 0 to 100 scale, 0 is no effect, 100 is complete control

## COc1nn(-c2ccc(C(F)(F)F)cc2)nc1Cc1ccnc(C(F)(F)F)c1 [Compound 15, 4-[[5-methoxy-2-[4-(trifluoromethyl)phenyl]-2H-1,2,3-triazol-4-yl]methyl]-2-(trifluoromethyl)pyridine]
[1]; [8]
  Plant response rating, Blackgrass: 20
[1]; [9]
  Plant response rating, Blackgrass: 30
[1]; [10]
  Plant response rating, Blackgrass: 60
[1]; [11]
  Plant response rating, Blackgrass: 80
[1]; [12]
  Plant response rating, Blackgrass: 15
[1]; [13]
  Plant response rating, Blackgrass: 50
[1]; [14]
  Plant response rating, Blackgrass: 85
[1]; [15]
  Plant response rating, Blackgrass: 95
[2]; [8]
  Plant response rating, Johnsongrass: 0
[2]; [9]
  Plant response rating, Johnsongrass: 45
[2]; [10]
  Plant response rating, Johnsongrass: 60
[2]; [11]
  Plant response rating, Johnsongrass: 80
[2]; [12]
  Plant response rating, Johnsongrass: 15
[2]; [13]
  Plant response rating, Johnsongrass: 55
[2]; [16]
  Plant response rating, Johnsongrass: 85
[2]; [15]
  Plant response rating, Johnsongrass: 90
Corn (Zea mays); Zea mays, post-emergence, 240 h, Postemergence, 125 g ai/ha, 0 to 100 scale, 0 is no effect, 100 is complete control, read-out: Corn plant response rating
  plant injury at 125 g/ha: 30%
Corn (Zea mays); Zea mays, post-emergence, 240 h, Postemergence, 500 g ai/ha, visual rating on 0 to 100 scale (0 no effect, 100 complete control), approximately ten days, read-out: Corn plant response rating
  plant injury at 500 g/ha: 50%
Corn (Zea mays); Zea mays, pre-emergence, 240 h, Preemergence, 125 g ai/ha, 0 to 100 scale (0 no effect, 100 complete control)
  Corn plant response rating (crop injury, 0 = no effect, 100 = complete kill) at 125 g/ha: 20%
Corn (Zea mays); Zea mays, pre-emergence, 240 h, Preemergence, 500 g ai/ha, 0 to 100 scale, 0 is no effect, 100 is complete control
  Corn plant response rating (crop injury, 0 = no effect, 100 = complete kill) at 500 g/ha: 50%
[3]; [8]
  Plant response rating, Pigweed: 5
[3]; [9]
  Plant response rating, Pigweed: 60
[3]; [10]
  Plant response rating, Pigweed: 70
[3]; [11]
  Plant response rating, Pigweed: 90
[3]; [12]
  Plant response rating, Pigweed: 98
[3]; [13]
  Plant response rating, Pigweed: 100
[3]; [16]
  Plant response rating, Pigweed: 100
[3]; [15]
  Plant response rating, Pigweed: 100
Wild oat (Avena fatua); [8]
  Plant response rating, Oat, Wild: 40
Wild oat (Avena fatua); [9]
  Plant response rating, Oat, Wild: 45
Wild oat (Avena fatua); [10]
  Plant response rating, Oat, Wild: 55
Wild oat (Avena fatua); [11]
  Plant response rating, Oat, Wild: 60
Wild oat (Avena fatua); [12]
  Plant response rating, Oat, Wild: 35
Wild oat (Avena fatua); [13]
  Plant response rating, Oat, Wild: 40
Wild oat (Avena fatua); [16]
  Plant response rating, Oat, Wild: 70
Wild oat (Avena fatua); [15]
  Plant response rating, Oat, Wild: 70
[4]; [8]
  Plant response rating, Wheat: 15
[4]; [9]
  Plant response rating, Wheat: 25
[4]; [10]
  Plant response rating, Wheat: 35
[4]; [11]
  Plant response rating, Wheat: 35
[4]; [12]
  Plant response rating, Wheat: 0
[4]; [13]
  Plant response rating, Wheat: 10
[4]; [16]
  Plant response rating, Wheat: 25
[4]; [15]
  Plant response rating, Wheat: 50
[5]; 16 g ai/ha, scale 0 to 100, 0 no effect, 100 complete control
  Plant response rating, Chickweed: 55
[5]; [17]
  Plant response rating, Chickweed: 55
[5]; [18]
  Plant response rating, Chickweed: 70
[5]; [19]
  Plant response rating, Chickweed: 75
[6]; post-emergence, Postemergence, 125 g ai/ha, 0 to 100 scale, 0 is no effect, 100 is complete control, read-out: Barnyardgrass plant response rating
  pest or weed control at 125 g/ha: 90%
[6]; post-emergence, Postemergence, 500 g ai/ha, visual rating on 0 to 100 scale (0 no effect, 100 complete control), approximately ten days, read-out: Barnyardgrass plant response rating
  pest or weed control at 500 g/ha: 90%
[6]; pre-emergence, Preemergence, 125 g ai/ha, 0 to 100 scale (0 no effect, 100 complete control), read-out: Plant response rating, Barnyardgrass
  pest or weed control at 125 g/ha: 100%
[6]; pre-emergence, Preemergence, 500 g ai/ha, 0 to 100 scale, 0 is no effect, 100 is complete control, read-out: Plant response rating, Barnyardgrass
  pest or weed control at 500 g/ha: 100%
[7]; post-emergence, Postemergence, 125 g ai/ha, 0 to 100 scale, 0 is no effect, 100 is complete control, read-out: Velvetleaf plant response rating
  pest or weed control at 125 g/ha: 100%
[7]; post-emergence, Postemergence, 500 g ai/ha, visual rating on 0 to 100 scale (0 no effect, 100 complete control), approximately ten days, read-out: Velvetleaf plant response rating
  pest or weed control at 500 g/ha: 100%
[7]; pre-emergence, Preemergence, 125 g ai/ha, 0 to 100 scale (0 no effect, 100 complete control), read-out: Plant response rating, Velvetleaf
  pest or weed control at 125 g/ha: 70%
[7]; pre-emergence, Preemergence, 500 g ai/ha, 0 to 100 scale, 0 is no effect, 100 is complete control, read-out: Plant response rating, Velvetleaf
  pest or weed control at 500 g/ha: 80%

## Cc1nn(-c2ccc(C(F)(F)F)cn2)nc1Oc1ccnc(C(F)(F)F)c1 [Compound 23]
[1]; [9]
  Plant response rating, Blackgrass: 15
[1]; [10]
  Plant response rating, Blackgrass: 20
[1]; [11]
  Plant response rating, Blackgrass: 20
[1]; [20]
  Plant response rating, Blackgrass: 25
[1]; [13]
  Plant response rating, Blackgrass: 5
[1]; [14]
  Plant response rating, Blackgrass: 85
[1]; [15]
  Plant response rating, Blackgrass: 100
[1]; [21]
  Plant response rating, Blackgrass: 100
[2]; [9]
  Plant response rating, Johnsongrass: 5
[2]; [10]
  Plant response rating, Johnsongrass: 10
[2]; [11]
  Plant response rating, Johnsongrass: 10
[2]; [20]
  Plant response rating, Johnsongrass: 20
[2]; [13]
  Plant response rating, Johnsongrass: 55
[2]; [16]
  Plant response rating, Johnsongrass: 75
[2]; [15]
  Plant response rating, Johnsongrass: 95
[2]; [21]
  Plant response rating, Johnsongrass: 98
Corn (Zea mays); [22]
  Corn plant response rating: 30
Corn (Zea mays); [23]
  Corn plant response rating: 50
Corn (Zea mays); [24]
  Plant response rating, Corn: 10
Corn (Zea mays); [25]
  Plant response rating, Corn: 40
[3]; [9]
  Plant response rating, Pigweed: 70
[3]; [11]
  Plant response rating, Pigweed: 80
[3]; [20]
  Plant response rating, Pigweed: 95
[3]; [13]
  Plant response rating, Pigweed: 100
[3]; [16]
  Plant response rating, Pigweed: 100
[3]; [15]
  Plant response rating, Pigweed: 100
[3]; [21]
  Plant response rating, Pigweed: 100
Wild oat (Avena fatua); [9]
  Plant response rating, Oat, Wild: 5
Wild oat (Avena fatua); [10]
  Plant response rating, Oat, Wild: 10
Wild oat (Avena fatua); [11]
  Plant response rating, Oat, Wild: 35
Wild oat (Avena fatua); [20]
  Plant response rating, Oat, Wild: 35
Wild oat (Avena fatua); [13]
  Plant response rating, Oat, Wild: 45
Wild oat (Avena fatua); [16]
  Plant response rating, Oat, Wild: 80
Wild oat (Avena fatua); [15]
  Plant response rating, Oat, Wild: 80
Wild oat (Avena fatua); [21]
  Plant response rating, Oat, Wild: 100
[4]; [9]
  Plant response rating, Wheat: 10
[4]; [10]
  Plant response rating, Wheat: 10
[4]; [11]
  Plant response rating, Wheat: 15
[4]; [20]
  Plant response rating, Wheat: 30
[4]; [13]
  Plant response rating, Wheat: 0
[4]; [16]
  Plant response rating, Wheat: 0
[4]; [15]
  Plant response rating, Wheat: 20
[4]; [21]
  Plant response rating, Wheat: 35
[5]; [17]
  Plant response rating, Chickweed: 30
[5]; [18]
  Plant response rating, Chickweed: 55
[5]; [19]
  Plant response rating, Chickweed: 60
[5]; 250 g ai/ha, scale 0 to 100
  Plant response rating, Chickweed: 70
[6]; [22]
  Barnyardgrass plant response rating: 70
[6]; [23]
  Barnyardgrass plant response rating: 90
[6]; [24]
  Plant response rating, Barnyardgrass: 70
[6]; [25]
  Plant response rating, Barnyardgrass: 100
[7]; [22]
  Velvetleaf plant response rating: 90
[7]; [23]
  Velvetleaf plant response rating: 100
[7]; [24]
  Plant response rating, Velvetleaf: 50
[7]; [25]
  Plant response rating, Velvetleaf: 100
